# Experimental data from patent US20090075915A1, “6,11-BICYCLOLIDES: BRIDGED BIARYL MACROLIDE DERIVATIVES” (priority 2007, published 2009).
# Key:
# [1] = system: H influenzae 33929; experiment: MIC, H influenzae 33929; type: cell-based, Haemophilus influenzae; conditions: for H. influenzae 33929 (microbiological data): Table 6, related compounds of US 6878691; for MIC: Haemophilus influenzae, 33929, Table 5
# Method: (§1) Susceptibility tests can be used to quantitatively measure the in vitro activity of an antimicrobial agent against a given bacterial isolate. Compounds are tested for in vitro antibacterial activity by a micro-dilution method. Minimal Inhibitory Concentration (MIC) is determined in 96 well microtiter plates utilizing the appropriate broth medium for the observed bacterial isolates. Antimicrobial agents are serially diluted (2-fold) in DMSO to produce a concentration range from about 64 μg/ml to about 0.03 μg/ml. The diluted compounds (2 μl/well) are then transferred into sterile, uninoculated medium (0.2 mL) by use of a 96 fixed tip-pipetting station. The inoculum for each bacterial strain is standardized to approximately 5×10^5 CFU/mL by optical comparison to a 0.5 McFarland turbidity standard. The plates are inoculated with 10 μl/well of adjusted bacterial inoculum. The 96 well plates are covered and incubated at 35±2° C. for 24 hours in ambient air environment. Following incubation, plate wells are visually examined by Optical Density measurement for the presence of growth (turbidity). The lowest concentration of an antimicrobial agent at which no visible growth occurs is defined as the MIC.
# (§2) All in vitro testing follows the guidelines described in the Approved Standards M7-A7 protocol, published by the Clinical Laboratory Standards Institute (CLSI).
# [2] = system: H influenzae 49247; experiment: MIC, H influenzae 49247; type: cell-based, Haemophilus influenzae; conditions: for H. influenzae 49247 (microbiological data): Table 6, related compounds of US 6878691; for MIC: Haemophilus influenzae, 49247, Table 5
# Method: as §1, §2
# [3] = system: MRSA 33591; experiment: MIC, MRSA 33591; type: cell-based, Staphylococcus aureus; conditions: for MRSA 33591 (microbiological data): Table 6, related compounds of US 6878691; for MIC: Staphylococcus aureus, MRSA, Table 5
# Method: as §1, §2
# [4] = system: H. influenzae 1435; experiment: MIC, H. influenzae 1435; type: cell-based, Haemophilus influenzae; design: unit not given beside the values
# Method: as §1, §2
# [5] = system: S. pneumoniae 7701; experiment: MIC, S. pneumoniae 7701; type: cell-based
# Method: as §1, §2
# [6] = system: S. pneumoniae 7701; experiment: Mouse protection test model (MPT), S. pneumoniae 7701; type: in vivo; conditions: Streptococcus pneumoniae
# [7] = system: H. influenzae S1280; experiment: Rat lung infection model (RLI), H. influenzae S1280; type: in vivo; conditions: Haemophilus influenzae, read-out: ED50 (2Log Red for RLI)
# [8] = system: H. influenzae 3643; experiment: MIC, H. influenzae 3643; type: cell-based, Haemophilus influenzae; design: unit not given beside the values
# Method: as §1, §2
# [9] = system: H. influenzae S1280; experiment: MIC, H. influenzae S1280; type: cell-based, Haemophilus influenzae; design: unit not given beside the values
# Method: as §1, §2
# [10] = system: S. aureus Smith; experiment: Systemic mouse protection model (MPT), S. aureus Smith; type: in vivo; conditions: Staphylococcus aureus, MPT
# [11] = system: H. influenzae 1435; experiment: Rat lung infection model (RLI), H. influenzae 1435; type: in vivo; conditions: Haemophilus influenzae, read-out: ED50 (2Log Red for RLI)
# [12] = system: S. aureus Smith; experiment: MIC, S. aureus Smith; type: cell-based, Staphylococcus aureus; conditions: table of animal models of infection
# Method: as §1, §2
# [13] = system: H. influenzae 3643; experiment: Rat lung infection model (RLI), H. influenzae 3643; type: in vivo; conditions: Haemophilus influenzae, read-out: ED50 (2Log Red for RLI)
# [14] = system: MRSA 7662; experiment: MIC, MRSA 7662; type: cell-based; conditions: Staphylococcus aureus, Table 5, read-out: MIC MRSA 7662
# Method: as §1, §2
Structure (SMILES),H. influenzae 33929 (microbiological data) [1],H. influenzae 49247 (microbiological data) [2],MRSA 33591 (microbiological data) [3],further results
CCC1OC(=O)C(C)C(=O)C(C)C(OC2OC(C)CC(N(C)C)C2O)C2(C)CC(C)C(=NC(C)=O)C(C)C(OCC(=NOCc3ccc(-c4ccccn4)s3)CO2)C1(C)O (stereo not drawn) [Example 115 in US 6878691],16,16,>64,
CCC1OC(=O)C(C)C(=O)C(C)C(OC2OC(C)CC(N(C)C)C2O)C2(C)CC(C)C(=NC(C)=O)C(C)C(OCC(=NOCc3ccc(-c4ncccn4)cc3)CO2)C1(C)O (stereo not drawn) [Example 193 in US 6878691],8,8,64,
CCC1OC(=O)C(C)(F)C(=O)C(C)C(OC2OC(C)CC(N(C)C)C2O)C2(C)CC(C)C(=NC(C)=O)C(C)C(OCC(=NOCc3ccc(-n4cccn4)nc3)CO2)C1(C)O (stereo not drawn) [Example 214 in US 6878691],4,8,64,
CCC1OC(=O)C(C)C(=O)C(C)C(OC2OC(C)CC(N(C)C)C2O)C2(C)CC(C)C(=NC(C)=O)C(C)C(OCC(=NOCc3ccc(-c4csnn4)cc3)CO2)C1(C)O (stereo not drawn) [Example 72 in US 6878691],8,8,>64,
CCC1OC(=O)C(C)C(=O)C(C)C(OC2OC(C)CC(N(C)C)C2O)C2(C)CC(C)C(=NC(C)=O)C(C)C(OCC(=NOCc3ccc(-c4cccs4)nc3)CO2)C1(C)O (stereo not drawn) [Example 205 in US 6878691],4,8,>64,
"CC[C@H]1OC(=O)[C@H](C)C(=O)[C@H](C)[C@@H](O[C@@H]2O[C@H](C)C[C@H](N(C)C)[C@H]2O)[C@](C)(OC)C[C@@H](C)C(=O)[C@H](C)[C@H]2N(CCCCn3cnc(-c4cccnc4)c3)C(=O)O[C@]12C [Telithromycin, reference compound]",,,,MIC [4]: 2; MIC [5]: 0.25; ED50 [6]: 10 mg/kg; ED50 [7]: 56 mg/kg; MIC [8]: 4; MIC [9]: 2; ED50 [10]: 11 mg/kg; ED50 [11]: 49 mg/kg; MIC [12]: 0.13; ED50 [13]: 78 mg/kg
CCC1OC(=O)C(C)C(=O)C(C)C(OC2OC(C)CC(N(C)C)C2O)C2(C)CC(C)C(=NC(C)=O)C(C)C(OCC(=NOCc3ccc(-n4cncn4)cc3)CO2)C1(C)O (stereo not drawn) [Example 91 in US 6878691],16,8,>64,
CCC1OC(=O)C(C)C(=O)C(C)C(OC2OC(C)CC(N(C)C)C2O)C2(C)CC(C)C(=NC(C)=O)C(C)C(OCC(=NOCc3ccc(-c4nnc(N)s4)nc3)CO2)C1(C)O (stereo not drawn) [Example 234 in US 6878691],4,4,>64,
CCC1OC(=O)C(C)(F)C(=O)C(C)C(OC2OC(C)CC(N(C)C)C2O)C2(C)CC(C)C(=NC(C)=O)C(C)C(OCC(=NOCc3ccc(-c4ncccn4)s3)CO2)C1(C)O (stereo not drawn) [Example 140 in US 6878691],8,8,16,
CCC1OC(=O)C(C)(F)C(=O)C(C)C(OC2OC(C)CC(N(C)C)C2O)C2(C)CC(C)C(=NC(C)=O)C(C)C(OCC(=NOCc3ccc(-c4csnn4)cc3)CO2)C1(C)O (stereo not drawn) [Example 219 in US 6878691],4,4,32,
CCC1OC(=O)C(C)C(=O)C(C)C(OC2OC(C)CC(N(C)C)C2O)C2(C)CC(C)C(=NC(C)=O)C(C)C(OCC(=NOCc3ccc(-c4cccc(N)n4)nc3)CO2)C1(C)O (stereo not drawn) [Example 227 in US 6878691],4,4,32,
CCC1OC(=O)C(C)(F)C(=O)C(C)C(OC2OC(C)CC(N(C)C)C2O)C2(C)CC(C)C(=NC(C)=O)C(C)C(OCC(=NOCc3ccc(-c4cccc(N)n4)s3)CO2)C1(C)O (stereo not drawn) [Example 173 in US 6878691],4,4,4,
CCC1OC(=O)C(C)C(=O)C(C)C(OC2OC(C)CC(N(C)C)C2O)C2(C)CC(C)C(=NC(C)=O)C(C)C(OCC(=NOCc3cnc(-n4cccn4)c(F)c3)CO2)C1(C)O (stereo not drawn) [Example 259 in US 6878691],8,4,>64,
CCC1OC(=O)C(C)C(=O)C(C)C(OC2OC(C)CC(N(C)C)C2O)C2(C)CC(C)C(=NC(C)=O)C(C)C(OCC(=NOCc3ccc(-c4cccnc4)s3)CO2)C1(C)O (stereo not drawn) [Example 66 in US 6878691],16,16,>64,
CCC1OC(=O)C(C)C(=O)C(C)C(OC2OC(C)CC(N(C)C)C2O)C2(C)CC(C)C(=NC(C)=O)C(C)C(OCC(=NOCc3ccc(-c4nccs4)nc3)CO2)C1(C)O (stereo not drawn) [Example 212 in US 6878691],4,8,64,
CCC(=O)/N=C1\[C@H](C)C[C@@]2(C)OC/C(=N/OCc3coc(-c4cccc(N)n4)n3)CO[C@H]([C@H]1C)[C@](C)(O)[C@@H](CC)OC(=O)[C@@](C)(F)C(=O)[C@H](C)[C@H]2O[C@@H]1O[C@H](C)C[C@H](N(C)C)[C@H]1O [Compound 11],,,,MIC [14]: 2 µg/mL; MIC [3]: 4 µg/mL
CC[C@H]1OC(=O)[C@H](C)C(=O)[C@H](C)[C@@H](O[C@@H]2O[C@H](C)C[C@H](N(C)C)[C@H]2O)[C@@]2(C)C[C@@H](C)C(=O)[C@H](C)[C@@H](OC/C(=N\OCc3ccc(-c4nc(N)ns4)cn3)CO2)[C@]1(C)O [Compound 2],,,,MIC [1]: 2 µg/mL; MIC [2]: 1 µg/mL
CCC1OC(=O)C(C)(F)C(=O)C(C)C(OC2OC(C)CC(N(C)C)C2O)C2(C)CC(C)C(=NC(C)=O)C(C)C(OCC(=NOCc3ccc(-c4cnccn4)s3)CO2)C1(C)O (stereo not drawn) [Example 141 in US 6878691],8,8,32,
CCC(=O)/N=C1\[C@H](C)C[C@@]2(C)OC/C(=N/OCc3csc(-c4cccc(N)n4)n3)CO[C@H]([C@H]1C)[C@](C)(O)[C@@H](CC)OC(=O)[C@@](C)(F)C(=O)[C@H](C)[C@H]2O[C@@H]1O[C@H](C)C[C@H](N(C)C)[C@H]1O [Compound 3],,,,MIC [1]: 4 µg/mL; MIC [2]: 1 µg/mL; MIC [14]: 1 µg/mL; MIC [3]: 2 µg/mL
CCC1OC(=O)C(C)C(=O)C(C)C(OC2OC(C)CC(N(C)C)C2O)C2(C)CC(C)C(=NC(C)=O)C(C)C(OCC(=NOCc3noc(-c4ccccc4)n3)CO2)C1(C)O (stereo not drawn) [Example 106 in US 6878691],8,8,>64,
CCNC(=O)c1cccc(-c2cc(CON=C3COC4C(C)C(=NC(C)=O)C(C)CC(C)(OC3)C(OC3OC(C)CC(N(C)C)C3O)C(C)C(=O)C(C)C(=O)OC(CC)C4(C)O)on2)n1 (stereo not drawn) [Example 195 in US 6878691],32,32,>64,
CCC1OC(=O)C(C)C(=O)C(C)C(OC2OC(C)CC(N(C)C)C2O)C2(C)CC(C)C(=NC(C)=O)C(C)C(OCC(=NOCc3cc(-c4cccnc4)no3)CO2)C1(C)O (stereo not drawn) [Example 69 in US 6878691],16,16,>64,
